Patent publication US20120219538A1, “STABILIZED PROTEIN FORMULATIONS AND USE THEREOF” (THERAPEOMIC AG, priority 2009, published 2012)
Read-outs that look alike come from different tables or passages of the source.

Biological target: T1, salmon calcitonin (sCT) (Oncorhynchus keta, UniProt P01263)
T1 construct: Salmon calcitonin is a 32-amino acid polypeptide hormone; purchased Therapeomic Inc., Switzerland
T1 sequence (P01263 83-114 limits assumed): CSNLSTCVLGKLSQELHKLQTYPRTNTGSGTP
Format: physicochemical
Settings: 10 mM sodium citrate buffer pH 6, 1:1 molar ratio; for slope of aggregation curve: Nile red fluorescence at 620 nm; for lag time of aggregation: OD at 450 nm
Description: Salmon calcitonin (Therapeomic Inc., Switzerland) in a final concentration of 2.5 mg/ml per well with and without the respective excipients to be tested, i.e. non-conjugated mPEG-amines and non-conjugated hydrophobic headgroups were prepared in 4 different buffer systems: 10 mM sodium acetate pH 5, 10 mM sodium citrate pH 5, 10 mM sodium citrate pH 6, 10 mM sodium phosphate buffer pH 8. Samples are prepared two times and nile red in a final concentration of 1 μM is added to one of each. Aggregation is followed in UV-transparent 96-well plates or 384-well Costar® plates from Corning (Corning Life Sciences, Schiphol, Netherlands) by a microplate reader (Tecan Safire™ microplate reader, Tecan Group Ltd, Männedorf, Switzerland) by monitoring turbidity, nile red fluorescence and intrinsic fluorescence of the protein/peptide drug or the hydrophobic head-group. After finishing the aggregation kinetics, final spectra of nile red fluorescence, UV and protein/peptide drug or hydrophobic head group fluorescence were measured.
Aggregation was checked in absence of any excipient, in presence of equimolar amounts of dansylamide, mPEG-amine 2 kD and dansyl-mPEG 2 kD, respectively.

salmon calcitonin [sCT]
slope of aggregation curve (Table 2): 1843 a.u./hrs | lag time of aggregation (Table 2): 3.5 h | Nile red fluorescence at 620 nm (Table 2, time 0 hrs): 1058 | OD at 450 nm (Table 2, time 0 hrs): 0.10 | Nile red fluorescence at 620 nm (Table 2, time 9.5 hrs): 18581 | OD at 450 nm (Table 2, time 9.5 hrs): 0.22 | Nile red fluorescence at 620 nm (Table 2, time 20 hrs): 27276 | OD at 450 nm (Table 2, time 20 hrs): 0.63 | Nile red fluorescence at 620 nm (Table 2, time 100 hrs): 25328 | OD at 450 nm (Table 2, time 100 hrs): 0.68 | Nile red fluorescence at 620 nm (Table 2, time 166 hrs): 24729 | OD at 450 nm (Table 2, time 166 hrs): 0.64 | slope of aggregation curve (Table 3, higher detector sensitivity): 5546 a.u./hrs | lag time of aggregation (Table 3): 4.2 h | OD at 450 nm (Table 3, time 0 hrs): 0.11 | Nile red fluorescence at 620 nm (Table 3, time 0 hrs, higher sensitivity of the fluorescence detector than Table 2): 4560 | Nile red fluorescence at 620 nm (Table 3, time 5 hrs, higher sensitivity of the fluorescence detector than Table 2): 38483 | OD at 450 nm (Table 3, time 6.2 hrs): 0.15 | OD at 450 nm (Table 3, time 10 hrs): 0.22 | Nile red fluorescence at 620 nm (Table 3, time 10 hrs, higher sensitivity of the fluorescence detector than Table 2): 61019 | Nile red fluorescence at 620 nm (Table 3, time 13.5 hrs, higher sensitivity of the fluorescence detector than Table 2): >65000 | Nile red fluorescence at 620 nm (Table 3, time 20 hrs, higher sensitivity of the fluorescence detector than Table 2): >65000 | OD at 450 nm (Table 3, time 30.5 hrs): 0.49 | OD at 450 nm (Table 3, time 140 hrs): 0.56
